In ChEMBL document CHEMBL1129930, “Analogues of methotrexate in rheumatoid arthritis. 2. Effects of 5-deazaaminopterin, 5,10-dideazaaminopterin, and analogues on type II collagen-induced arthritis in mice” (J Med Chem, 1997):

Tests used:
Mus musculus [1] = test: Tested for antiinflammatory activity on mouse type II collagen arthritis as Paw swelling of all animals in each group on day 37 at intraperitoneal dose of 6 mg/kg; assay type: functional
Mus musculus [2] = test: Incidence of disease (mouse type II collagen) was scored as the percentage of animals within each experimental group that exhibited joint or limb inflammation on day 37 at intraperitoneal dose of 6 mg/kg; assay type: functional
Mus musculus [3] = test: Tested for antiinflammatory activity on mouse type II collagen arthritis as Paw swelling of all animals in each group on day 44 at intraperitoneal dose of 1.5 mg/kg; assay type: functional
Mus musculus [4] = test: Tested for antiinflammatory activity on mouse type II collagen arthritis as Paw swelling of all animals in each group on day 30 at intraperitoneal dose of 1.5 mg/kg; assay type: functional
Mus musculus [5] = test: Incidence of disease (mouse type II collagen) was scored as the percentage of animals within each experimental group that exhibited joint or limb inflammation on day 23 at intraperitoneal dose of 6 mg/kg; assay type: functional
Mus musculus [6] = test: Incidence of disease (mouse type II collagen) was scored as the percentage of animals within each experimental group that exhibited joint or limb inflammation on day 44 at intraperitoneal dose of 1.5 mg/kg; assay type: functional
Mus musculus [7] = test: Tested for antiinflammatory activity on mouse type II collagen arthritis as Paw swelling of all animals in each group on day 30 at intraperitoneal dose of 6 mg/kg; assay type: functional
Mus musculus [8] = test: Incidence of disease (mouse type II collagen) was scored as the percentage of animals within each experimental group that exhibited joint or limb inflammation on day 23 at intraperitoneal dose of 1.5 mg/kg; assay type: functional
Mus musculus [9] = test: Incidence of disease (mouse type II collagen) was scored as the percentage of animals within each experimental group that exhibited joint or limb inflammation on day 30 at intraperitoneal dose of 1.5 mg/kg; assay type: functional
Mus musculus [10] = test: Tested for antiinflammatory activity on mouse type II collagen arthritis as Paw swelling of all animals in each group on day 37 at intraperitoneal dose of 1.5 mg/kg; assay type: functional
Mus musculus [11] = test: Tested for antiinflammatory activity on mouse type II collagen arthritis as Paw swelling of all animals in each group on day 44 at intraperitoneal dose of 6 mg/kg; assay type: functional
Mus musculus [12] = test: Tested for antiinflammatory activity on mouse type II collagen arthritis as Paw swelling of all animals in each group on day 23 at intraperitoneal dose of 3 mg/kg; assay type: functional
Mus musculus [13] = test: Tested for antiinflammatory activity on mouse type II collagen arthritis as Paw swelling of all animals in each group on day 44 at intraperitoneal dose of 3 mg/kg; assay type: functional
Mus musculus [14] = test: Tested for antiinflammatory activity on mouse type II collagen arthritis as Paw swelling of all animals in each group on day 30 at intraperitoneal dose of 3 mg/kg; assay type: functional
Mus musculus [15] = test: Tested for antiinflammatory activity on mouse type II collagen arthritis as Paw swelling of all animals in each group on day 23 at intraperitoneal dose of 6 mg/kg; assay type: functional
Mus musculus [16] = test: Tested for antiinflammatory activity on mouse type II collagen arthritis as Paw swelling of all animals in each group on day 23 at intraperitoneal dose of 1.5 mg/kg; assay type: functional
Mus musculus [17] = test: Incidence of disease (mouse type II collagen) was scored as the percentage of animals within each experimental group that exhibited joint or limb inflammation on day 44 at intraperitoneal dose of 6 mg/kg; assay type: functional
Mus musculus [18] = test: Incidence of disease (mouse type II collagen) was scored as the percentage of animals within each experimental group that exhibited joint or limb inflammation on day 30 at intraperitoneal dose of 6 mg/kg; assay type: functional
Mus musculus [19] = test: Tested for antiinflammatory activity on mouse type II collagen arthritis as Paw swelling of all animals in each group on day 37 at intraperitoneal dose of 3 mg/kg; assay type: functional
Mus musculus [20] = test: Incidence of disease (mouse type II collagen) was scored as the percentage of animals within each experimental group that exhibited joint or limb inflammation on day 23 at intraperitoneal dose of 3 mg/kg; assay type: functional
Mus musculus [21] = test: Incidence of disease (mouse type II collagen) was scored as the percentage of animals within each experimental group that exhibited joint or limb inflammation on day 37 at intraperitoneal dose of 3 mg/kg; assay type: functional
Mus musculus [22] = test: Incidence of disease (mouse type II collagen) was scored as the percentage of animals within each experimental group that exhibited joint or limb inflammation on day 44 at intraperitoneal dose of 3 mg/kg; assay type: functional
Mus musculus [23] = test: Incidence of disease (mouse type II collagen) was scored as the percentage of animals within each experimental group that exhibited joint or limb inflammation on day 37 at intraperitoneal dose of 1.5 mg/kg; assay type: functional
Mus musculus [24] = test: Incidence of disease (mouse type II collagen) was scored as the percentage of animals within each experimental group that exhibited joint or limb inflammation on day 30 at intraperitoneal dose of 3 mg/kg; assay type: functional
L1210 = test: Concentration required to inhibit the growth of L1210 cells.; assay type: functional, cell-based; conditions: Mus musculus
[25] = Concentration required to inhibit the growth of chang liver cells.; assay type: functional; conditions: Homo sapiens
Mus musculus [26] = test: Tested for antiinflammatory activity on mouse type II collagen arthritis as Paw swelling of all animals in each group on day 30 at intraperitoneal dose of 12 mg/kg; assay type: functional
Mus musculus [27] = test: Incidence of disease (mouse type II collagen) was scored as the percentage of animals within each experimental group that exhibited joint or limb inflammation on day 44 at intraperitoneal dose of 12 mg/kg; assay type: functional
Mus musculus [28] = test: Incidence of disease (mouse type II collagen) was scored as the percentage of animals within each experimental group that exhibited joint or limb inflammation on day 30 at intraperitoneal dose of 12 mg/kg; assay type: functional
Mus musculus [29] = test: Tested for antiinflammatory activity on mouse type II collagen arthritis as Paw swelling of all animals in each group on day 23 at intraperitoneal dose of 12 mg/kg; assay type: functional
Mus musculus [30] = test: Tested for antiinflammatory activity on mouse type II collagen arthritis as Paw swelling of all animals in each group on day 37 at intraperitoneal dose of 12 mg/kg; assay type: functional
Mus musculus [31] = test: Incidence of disease (mouse type II collagen) was scored as the percentage of animals within each experimental group that exhibited joint or limb inflammation on day 23 at intraperitoneal dose of 12 mg/kg; assay type: functional
Mus musculus [32] = test: Incidence of disease (mouse type II collagen) was scored as the percentage of animals within each experimental group that exhibited joint or limb inflammation on day 37 at intraperitoneal dose of 12 mg/kg; assay type: functional
Mus musculus [33] = test: Tested for antiinflammatory activity on mouse type II collagen arthritis as Paw swelling of all animals in each group on day 44 at intraperitoneal dose of 12 mg/kg; assay type: functional

SMILES | Paw swelling (Mus musculus [1]) | Animals (Mus musculus [2]) | Paw swelling (Mus musculus [3]) | Paw swelling (Mus musculus [4]) | Animals (Mus musculus [5]) | Animals (Mus musculus [6]) | Paw swelling (Mus musculus [7]) | Animals (Mus musculus [8]) | Animals (Mus musculus [9]) | Paw swelling (Mus musculus [10]) | Paw swelling (Mus musculus [11]) | Paw swelling (Mus musculus [12]) | Paw swelling (Mus musculus [13]) | Paw swelling (Mus musculus [14]) | Paw swelling (Mus musculus [15]) | Paw swelling (Mus musculus [16]) | Animals (Mus musculus [17]) | Animals (Mus musculus [18]) | Paw swelling (Mus musculus [19]) | Animals (Mus musculus [20]) | other results
CCCCc1c(CNc2ccc(C(=O)NC(CCC(=O)O)C(=O)O)cc2)cnc2nc(N)nc(N)c12 (stereo not given) | 2.27 mm | 50% | 2.27 mm | 2.17 mm | 0% | 38% | 2.15 mm | 0% | 0% | 2.23 mm | 2.29 mm | 2.16 mm | 2.27 mm | 2.15 mm | 2.12 mm | 2.16 mm | 50% | 0% | 2.2 mm | 0% | Animals (Mus musculus [21]): 12%; Animals (Mus musculus [22]): 38%; Animals (Mus musculus [23]): 38%; Animals (Mus musculus [24]): 0%
CCCN(Cc1cnc2nc(N)nc(N)c2c1C)c1ccc(C(=O)NC(CCC(=O)O)C(=O)O)cc1 (stereo not given) | 2.2 mm | 12% | 2.22 mm | 2.15 mm | 0% | 25% | 2.19 mm | 0% | 0% | 2.21 mm | 2.24 mm | 2.12 mm | 2.16 mm | 2.13 mm | 2.16 mm | 2.15 mm | 25% | 12% | 2.17 mm | 0% | IC50 (L1210): 11 nM; IC50 [25]: 14 nM; Animals (Mus musculus [21]): 0%; Animals (Mus musculus [22]): 0%; Animals (Mus musculus [23]): 12%; Animals (Mus musculus [24]): 0%
CCc1c(CN(C)c2ccc(C(=O)NC(CCC(=O)O)C(=O)O)s2)cnc2nc(N)nc(N)c12 (stereo not given) | 2.16 mm | 12% | 2.37 mm | 2.2 mm | 0% | 50% | 2.13 mm | 25% | 12% | 2.26 mm | 2.32 mm | 2.14 mm | 2.45 mm | 2.15 mm | 2.12 mm | 2.24 mm | 50% | 0% | 2.2 mm | 0% | Animals (Mus musculus [21]): 12%; Animals (Mus musculus [22]): 88%; Animals (Mus musculus [23]): 38%; Animals (Mus musculus [24]): 0%
C=CCN(Cc1cnc2nc(N)nc(N)c2c1CC)c1ccc(C(=O)NC(CCC(=O)O)C(=O)O)cc1 (stereo not given) | 2.28 mm | 50% | 2.4 mm | 2.18 mm | 0% | 62% | 2.21 mm | 0% | 0% | 2.26 mm | 2.45 mm | 2.16 mm | 2.55 mm | 2.27 mm | 2.15 mm | 2.14 mm | 88% | 25% | 2.34 mm | 0% | Animals (Mus musculus [21]): 57%; Animals (Mus musculus [22]): 86%; Animals (Mus musculus [23]): 38%; Animals (Mus musculus [24]): 29%
CCC(Cc1cnc2nc(N)nc(N)c2c1)c1ccc(C(=O)NC(CCC(=O)O)C(=O)O)cc1 (stereo not given) | 2.8 mm | 88% | 2.59 mm | 2.31 mm | 12% | 88% | 2.57 mm | 25% | 62% | 2.48 mm | 2.76 mm | 2.26 mm | 2.7 mm | 2.43 mm | 2.2 mm | 2.17 mm | 100% | 100% | 2.67 mm | 25% | IC50 (L1210): 75 nM; IC50 [25]: 12 nM; Animals (Mus musculus [21]): 100%; Animals (Mus musculus [22]): 100%; Animals (Mus musculus [23]): 88%; Animals (Mus musculus [24]): 88%
Nc1nc(N)c2cc(CCc3ccc(C(=O)NC(CCC(=O)O)C(=O)O)cn3)cnc2n1 (stereo not given) | 2.61 mm | 88% |  |  | 0% |  | 2.39 mm |  |  |  | 2.86 mm |  |  |  | 2.12 mm |  | 88% | 88% |  |  | Paw swelling (Mus musculus [26]): 2.28 mm; Animals (Mus musculus [27]): 88%; Animals (Mus musculus [28]): 62%; Paw swelling (Mus musculus [29]): 2.1 mm; Paw swelling (Mus musculus [30]): 2.5 mm; Animals (Mus musculus [31]): 0%; Animals (Mus musculus [32]): 88%; Paw swelling (Mus musculus [33]): 2.67 mm
